From ChEMBL document CHEMBL5390317, “Novel Indane-Containing NBTIs with Potent Anti-Gram-Negative Activity and Minimal hERG Inhibition” (ACS Med Chem Lett, 2023)
In brackets after ≈: the same amount, converted by molar mass.

How the values were obtained:
Escherichia coli [1] = test: Antibacterial activity against Escherichia coli ATCC BAA-2340 assessed as inhibition in bacterial growth incubated for 20 to 24 hrs by CLSI based broth microdilution method; assay type: functional
Pseudomonas aeruginosa [2] = test: Antibacterial activity against Pseudomonas aeruginosa NCTC 11451 assessed as inhibition in bacterial growth incubated for 20 to 24 hrs by CLSI based broth microdilution method; assay type: functional; conditions: Pseudomonas aeruginosa, NCTC 11451, time 20-24 hrs; read-out: MIC
hERG (KCNH2) [3] = molecular target: T1, hERG (KCNH2) (Homo sapiens, UniProt Q12809); test: Inhibition of hERG potassium channel expressed in CHO cells at 1 uM by electrophysiological patch clamp assay relative to control; assay type: toxicity, cell-based; conditions: CHO cells expressing hERG
Escherichia coli [4] = test: Antibacterial activity against Escherichia coli ATCC 25922 assessed as inhibition in bacterial growth incubated for 20 to 24 hrs by CLSI based broth microdilution method; assay type: functional; conditions: time 20-24 hrs
Klebsiella pneumoniae [5] = test: Antibacterial activity against Klebsiella pneumoniae ATCC BAA-1705 assessed as inhibition in bacterial growth incubated for 20 to 24 hrs by CLSI based broth microdilution method; assay type: functional; conditions: time 20-24 hrs
Pseudomonas aeruginosa [6] = test: Antibacterial activity against Pseudomonas aeruginosa ATCC 27853 assessed as inhibition in bacterial growth incubated for 20 to 24 hrs by CLSI based broth microdilution method; assay type: functional; conditions: time 20-24 hrs
Escherichia coli [7] = test: Antibacterial activity against Escherichia coli K-12 BW25113 assessed as inhibition in bacterial growth incubated for 20 to 24 hrs by CLSI based broth microdilution method; assay type: functional
Acinetobacter baumannii [8] = test: Antibacterial activity against Acinetobacter baumannii ATCC BAA-747 assessed as inhibition in bacterial growth incubated for 20 to 24 hrs by CLSI based broth microdilution method; assay type: functional
Staphylococcus aureus [9] = test: Antibacterial activity against Staphylococcus aureus ATCC BAA-1556 assessed as inhibition in bacterial growth incubated for 20 to 24 hrs by CLSI based broth microdilution method; assay type: functional; conditions: Staphylococcus aureus, ATCC BAA-1556, time 20-24 hrs; read-out: MIC
Acinetobacter baumannii [10] = test: Antibacterial activity against Acinetobacter baumannii ATCC 51432 assessed as inhibition in bacterial growth incubated for 20 to 24 hrs by CLSI based broth microdilution method; assay type: functional; conditions: Acinetobacter baumannii, ATCC 51432, time 20-24 hrs; read-out: MIC
hERG (KCNH2) [11] = molecular target: T1, hERG (KCNH2); test: Inhibition of hERG potassium channel expressed in CHO cells at 10 uM by electrophysiological patch clamp assay relative to control; assay type: toxicity, cell-based; conditions: CHO cells expressing hERG
[12] = molecular target: Voltage-gated inwardly rectifying potassium channel KCNH2 (Homo sapiens, UniProt Q12809); test: (§1) Inhibition of hERG potassium channel expressed in CHO cells by electrophysiological patch clamp assay; assay type: toxicity, cell-based
hERG (KCNH2) [13] = molecular target: T1, hERG (KCNH2); test: as §1; assay type: toxicity, cell-based; conditions: human, CHO cells expressing hERG
Staphylococcus aureus [14] = test: Antibacterial activity against Staphylococcus aureus ATCC 29213 assessed as inhibition in bacterial growth incubated for 20 to 24 hrs by CLSI based broth microdilution method; assay type: functional; conditions: time 20-24 hrs
Klebsiella pneumoniae [15] = test: Antibacterial activity against Klebsiella pneumoniae ATCC 700603 assessed as inhibition in bacterial growth incubated for 20 to 24 hrs by CLSI based broth microdilution method; assay type: functional; conditions: Klebsiella pneumoniae, ATCC 700603, time 20-24 hrs; read-out: MIC
Escherichia coli [16] = test: Antibacterial activity against Escherichia coli ATCC 35218 assessed as inhibition in bacterial growth incubated for 20 to 24 hrs by CLSI based broth microdilution method; assay type: functional
[17] = Inhibition of Escherichia coli topoisomerase 4 incubated for 120 mins by Transcreener ADP2 FI assay
Klebsiella pneumoniae [18] = test: Antibacterial activity against Klebsiella pneumoniae ATCC 10031 assessed as inhibition in bacterial growth incubated for 20 to 24 hrs by CLSI based broth microdilution method; assay type: functional; conditions: time 20-24 hrs
DNA gyrase = DNA gyrase (Escherichia coli, UniProt P0AES4+P0AES6); test: Inhibition of Escherichia coli DNA gyrase incubated for 80 mins by Transcreener ADP2 FI assay; assay type: protein-complex assay
Pseudomonas aeruginosa [19] = test: Antibacterial activity against Pseudomonas aeruginosa NCTC 13437 assessed as inhibition in bacterial growth incubated for 20 to 24 hrs by CLSI based broth microdilution method; assay type: functional
Acinetobacter baumannii [20] = test: Antibacterial activity against Acinetobacter baumannii ATCC 19606 assessed as inhibition in bacterial growth incubated for 20 to 24 hrs by CLSI based broth microdilution method; assay type: functional; conditions: time 20-24 hrs
Escherichia coli [21] = test: Antibacterial activity against Escherichia coli K-12 BW25113 deltaTolC assessed as inhibition in bacterial growth incubated for 20 to 24 hrs by CLSI based broth microdilution method; assay type: functional; conditions: time 20-24 hrs
Klebsiella pneumoniae [22] = test: Antibacterial activity against Klebsiella pneumoniae ATCC BAA-2146 assessed as inhibition in bacterial growth incubated for 20 to 24 hrs by CLSI based broth microdilution method; assay type: functional; conditions: Klebsiella pneumoniae, ATCC BAA-2146, time 20-24 hrs; read-out: MIC
[23] = Escherichia coli, ATCC BAA-2340, time 20-24 hrs, read-out: MIC
[24] = Escherichia coli, K-12 BW25113, time 20-24 hrs, read-out: MIC
[25] = Acinetobacter baumannii, ATCC BAA-747, time 20-24 hrs, read-out: MIC
[26] = Staphylococcus aureus, ATCC 29213, read-out: MIC
[27] = Escherichia coli, ATCC 35218, time 20-24 hrs, read-out: MIC
[28] = Pseudomonas aeruginosa, NCTC 13437, time 20-24 hrs, read-out: MIC

Sequence of Voltage-gated inwardly rectifying potassium channel KCNH2 (Q12809 whole entry): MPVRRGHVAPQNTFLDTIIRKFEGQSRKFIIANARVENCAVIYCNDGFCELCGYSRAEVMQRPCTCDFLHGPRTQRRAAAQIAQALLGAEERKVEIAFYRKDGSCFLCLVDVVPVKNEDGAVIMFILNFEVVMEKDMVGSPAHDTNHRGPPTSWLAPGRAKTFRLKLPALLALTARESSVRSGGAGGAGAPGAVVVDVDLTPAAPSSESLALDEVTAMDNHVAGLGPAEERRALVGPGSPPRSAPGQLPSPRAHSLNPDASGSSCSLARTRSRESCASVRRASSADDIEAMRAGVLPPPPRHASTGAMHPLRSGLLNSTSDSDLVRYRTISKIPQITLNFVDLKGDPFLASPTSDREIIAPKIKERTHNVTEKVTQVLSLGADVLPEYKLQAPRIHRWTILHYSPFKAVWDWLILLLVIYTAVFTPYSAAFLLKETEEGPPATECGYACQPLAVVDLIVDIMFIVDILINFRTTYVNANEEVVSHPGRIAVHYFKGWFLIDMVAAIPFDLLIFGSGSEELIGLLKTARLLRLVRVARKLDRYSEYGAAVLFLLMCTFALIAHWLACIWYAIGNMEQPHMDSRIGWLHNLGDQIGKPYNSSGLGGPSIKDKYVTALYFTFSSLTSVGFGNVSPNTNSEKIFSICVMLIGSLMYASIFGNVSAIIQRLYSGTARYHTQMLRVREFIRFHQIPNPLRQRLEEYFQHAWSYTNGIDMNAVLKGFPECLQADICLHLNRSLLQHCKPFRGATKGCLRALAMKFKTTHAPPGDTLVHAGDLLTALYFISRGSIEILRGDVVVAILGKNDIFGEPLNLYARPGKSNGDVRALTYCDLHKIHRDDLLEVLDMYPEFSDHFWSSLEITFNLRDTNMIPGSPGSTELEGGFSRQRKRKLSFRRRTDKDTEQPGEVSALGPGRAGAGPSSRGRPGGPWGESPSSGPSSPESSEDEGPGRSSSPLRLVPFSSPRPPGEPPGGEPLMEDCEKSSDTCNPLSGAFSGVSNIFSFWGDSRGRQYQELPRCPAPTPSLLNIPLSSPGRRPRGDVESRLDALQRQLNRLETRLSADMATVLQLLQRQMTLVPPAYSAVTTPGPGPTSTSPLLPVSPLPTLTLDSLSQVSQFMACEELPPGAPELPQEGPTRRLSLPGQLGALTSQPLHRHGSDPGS
T1 sequence (Q12809 whole entry): as above

SMILES	MIC (Escherichia coli [1]; [23])	MIC (Pseudomonas aeruginosa [2])	MIC (Escherichia coli [4])	MIC (Klebsiella pneumoniae [5])	MIC (Pseudomonas aeruginosa [6])	MIC (Escherichia coli [7]; [24])	MIC (Acinetobacter baumannii [8]; [25])	MIC (Staphylococcus aureus [9])	MIC (Acinetobacter baumannii [10])	MIC (Staphylococcus aureus [14]; [26])	MIC (Klebsiella pneumoniae [15])	MIC (Escherichia coli [16]; [27])	IC50 [17]	MIC (Klebsiella pneumoniae [18])	IC50 (DNA gyrase)	MIC (Pseudomonas aeruginosa [19]; [28])	MIC (Escherichia coli [21])	MIC (Klebsiella pneumoniae [22])	IC50 [12]	IC20 (hERG (KCNH2) [13])	other results
N#Cc1cc(OCC2(N)CC2)cc2c1CC(CNCCC1CN(c3ccc4c(n3)NC(=O)CO4)C(=O)O1)C2 (stereo unspecified)	≤ 0.06 µg/mL	1 µg/mL (≈ 1.93 µM)	≤ 0.06 µg/mL	1 µg/mL (≈ 1.93 µM)	0.25 µg/mL (≈ 0.482 µM)	≤ 0.06 µg/mL	≤ 0.06 µg/mL	≤ 0.06 µg/mL	2 µg/mL (≈ 3.86 µM)	≤ 0.06 µg/mL	1 µg/mL (≈ 1.93 µM)	0.125 µg/mL (≈ 0.241 µM)	19 nM	≤ 0.06 µg/mL	35 nM	0.5 µg/mL (≈ 0.964 µM)	≤ 0.06 µg/mL	4 µg/mL (≈ 7.71 µM)	> 20000 nM	6400 nM	inhibition at 1 µM (hERG (KCNH2) [3]): < 1%; inhibition at 10 µM (hERG (KCNH2) [11]): 28%; MIC (Acinetobacter baumannii [20]): 1 µg/mL (≈ 1.93 µM)
N#Cc1cc(OCCN)cc2c1CC(CNCCC1CN(c3ccc4c(n3)NC(=O)CO4)C(=O)O1)C2 (stereo unspecified)	0.25 µg/mL (≈ 0.508 µM)	1 µg/mL (≈ 2.03 µM)	0.25 µg/mL (≈ 0.508 µM)	2 µg/mL (≈ 4.06 µM)	0.125 µg/mL (≈ 0.254 µM)	0.125 µg/mL (≈ 0.254 µM)	1 µg/mL (≈ 2.03 µM)	1 µg/mL (≈ 2.03 µM)	16 µg/mL (≈ 32.5 µM)	0.5 µg/mL (≈ 1.02 µM)	2 µg/mL (≈ 4.06 µM)	0.25 µg/mL (≈ 0.508 µM)	6 nM	≤ 0.06 µg/mL	17 nM	0.5 µg/mL (≈ 1.02 µM)	≤ 0.06 µg/mL	4 µg/mL (≈ 8.12 µM)	> 20000 nM	> 10000 nM	inhibition at 1 µM (hERG (KCNH2) [3]): < 1%; inhibition at 10 µM (hERG (KCNH2) [11]): < 1%; MIC (Acinetobacter baumannii [20]): 16 µg/mL (≈ 32.5 µM)
N#Cc1cc(OC2CNC2)cc2c1CC(CNCCC1CN(c3ccc4c(n3)NC(=O)CO4)C(=O)O1)C2 (stereo unspecified)	0.5 µg/mL (≈ 0.991 µM)	1 µg/mL (≈ 1.98 µM)	0.5 µg/mL (≈ 0.991 µM)	4 µg/mL (≈ 7.93 µM)	0.125 µg/mL (≈ 0.248 µM)	0.125 µg/mL (≈ 0.248 µM)	4 µg/mL (≈ 7.93 µM)	0.5 µg/mL (≈ 0.991 µM)	4 µg/mL (≈ 7.93 µM)	≤ 0.06 µg/mL	4 µg/mL (≈ 7.93 µM)	0.5 µg/mL (≈ 0.991 µM)	29 nM	≤ 0.06 µg/mL	51 nM	0.5 µg/mL (≈ 0.991 µM)	≤ 0.06 µg/mL	8 µg/mL (≈ 15.9 µM)	> 20000 nM	> 10000 nM	inhibition at 1 µM (hERG (KCNH2) [3]): < 1%; inhibition at 10 µM (hERG (KCNH2) [11]): < 1%; MIC (Acinetobacter baumannii [20]): 8 µg/mL (≈ 15.9 µM)
C[C@@H](C(=O)Nc1cc(F)c2c(c1)CC(CNCCC1CN(c3cnc4c(n3)NC(=O)CO4)C(=O)O1)C2)N(C)C (stereo in doubt; 2j)	–	–	–	–	–	–	–	–	–	–	–	–	–	–	–	–	–	–	178000 nM	–	MIC (Escherichia coli [1]; time 20-24 hrs): 0.25 µg/mL (≈ 0.462 µM); MIC (Escherichia coli [7]; time 20-24 hrs): 0.125 µg/mL (≈ 0.231 µM); MIC (Acinetobacter baumannii [8]; time 20-24 hrs): 0.5 µg/mL (≈ 0.923 µM); IC20 ([12]; human, cho): 66000 nM; MIC (Staphylococcus aureus [14]): 0.25 µg/mL (≈ 0.462 µM); MIC (Escherichia coli [16]; time 20-24 hrs): 0.25 µg/mL (≈ 0.462 µM); MIC (Pseudomonas aeruginosa [19]; time 20-24 hrs): 2 µg/mL (≈ 3.69 µM)

Now from value to compound, other results behind:

MIC (Escherichia coli [1]; [23])	MIC (Pseudomonas aeruginosa [2])	MIC (Escherichia coli [4])	MIC (Klebsiella pneumoniae [5])	MIC (Pseudomonas aeruginosa [6])	MIC (Escherichia coli [7]; [24])	MIC (Acinetobacter baumannii [8]; [25])	MIC (Staphylococcus aureus [9])	MIC (Acinetobacter baumannii [10])	MIC (Staphylococcus aureus [14]; [26])	MIC (Klebsiella pneumoniae [15])	MIC (Escherichia coli [16]; [27])	IC50 [17]	MIC (Klebsiella pneumoniae [18])	IC50 (DNA gyrase)	MIC (Pseudomonas aeruginosa [19]; [28])	MIC (Escherichia coli [21])	MIC (Klebsiella pneumoniae [22])	SMILES	IC50 [12]	IC20 (hERG (KCNH2) [13])	other results
0.125 µg/mL (≈ 0.231 µM)	4 µg/mL (≈ 7.39 µM)	–	–	–	–	0.25 µg/mL (≈ 0.462 µM)	1 µg/mL (≈ 1.85 µM)	8 µg/mL (≈ 14.8 µM)	0.25 µg/mL (≈ 0.462 µM)	2 µg/mL (≈ 3.69 µM)	0.125 µg/mL (≈ 0.231 µM)	–	≤ 0.06 µg/mL	–	2 µg/mL (≈ 3.69 µM)	≤ 0.06 µg/mL	8 µg/mL (≈ 14.8 µM)	C[C@@H](C(=O)Nc1cc(F)c2c(c1)CC(CNCCC1CN(c3cnc4c(n3)NC(=O)CO4)C(=O)O1)C2)N(C)C (stereo in doubt; 2i)	105000 nM	33000 nM	MIC (Escherichia coli [7]; time 20-24 hrs): <=0.06 ug ml-1
64 µg/mL (≈ 116 µM)	> 64 µg/mL	32 µg/mL (≈ 57.8 µM)	> 64 µg/mL	64 µg/mL (≈ 116 µM)	16 µg/mL (≈ 28.9 µM)	> 64 µg/mL	> 64 µg/mL	> 64 µg/mL	64 µg/mL (≈ 116 µM)	> 64 µg/mL	32 µg/mL (≈ 57.8 µM)	150 nM	> 64 µg/mL	1100 nM	64 µg/mL (≈ 116 µM)	1 µg/mL (≈ 1.81 µM)	> 64 µg/mL	CN(C(=O)CN1CCC1)c1cc(F)c2c(c1)CC(CNCCC1CN(c3cnc4c(n3)NC(=O)CO4)C(=O)O1)C2 (stereo unspecified)	–	–	MIC (Acinetobacter baumannii [20]): > 64 µg/mL
